Assay results published in ChEMBL document CHEMBL5154688, “Design, Synthesis, and Characterization of I-BET567, a Pan-Bromodomain and Extra Terminal (BET) Bromodomain Oral Candidate” (J Med Chem, 2022).
pIC50, pKd: −log10 of the molar value.

How the values were obtained:
[1] = Unbound volume of distribution at steady state in Wistar Han rat blood at 3 mg/kg, po or 1.3 mg/kg, iv measured upto 24 hrs by LC-MS/MS analysis; type: ADME, organism-based; settings: in vivo
[2] = molecular target: Histone acetyltransferase p300 (Homo sapiens, UniProt Q09472); assay: Binding affinity to EP300 (unknown origin) assessed as dissociation constant
[3] = Antineoplastic activity against human NMC 11060 cells xenografted in SCID mouse assessed as reduction in tumor volume at 10 mg/kg, po for 20 days measured at 15 days of post randomization relative to control; type: functional; settings: NMC 11060 cell, 480 h, time 20 day
[4] = Renal clearance in Wistar Han rat at 3 mg/kg, po or 1.3 mg/kg, iv upto 24 hrs by LC-MS/MS analysis; type: ADME, organism-based; settings: in vivo
[5] = molecular target: T1, Bromodomain testis-specific protein (Homo sapiens, UniProt Q58F21); assay: Binding affinity to BRDT BD1 (unknown origin) assessed as dissociation constant
[6] = Terminal half life in Beagle dog blood at 3 mg/kg, po or 1.0 mg/kg, iv by LC-MS/MS analysis; type: ADME, organism-based, Canis lupus familiaris; settings: read-out: beta t1/2 (converted)
[7] = Antineoplastic activity against human NMC 11060 cells xenografted in SCID mouse assessed as reduction in tumor volume at 30 mg/kg, po for 20 days measured at 20 days of post randomization relative to control; type: functional; settings: NMC 11060 cell, 480 h, time 20 day
[8] = Oral bioavailability in Beagle dog blood at 3 mg/kg by LC-MS/MS analysis; type: ADME, organism-based, Canis lupus familiaris
[9] = Volume of distribution at steady state in Beagle dog blood at 3 mg/kg, po or 1.0 mg/kg, iv by LC-MS/MS analysis; type: ADME, organism-based, Canis lupus familiaris; settings: in vivo
[10] = Toxicity in KLH-TNP-induced T-cell dependent immunization CD-1 mouse model assessed as tolerability at 30 mg/kg, po administered daily for 14 days; type: organism-based; settings: in vivo, 336 h, time 14 day
[11] = Toxicity in SCID mouse xenografted with human NMC 11060 cells assessed as tolerability at 3 to 30 mg/kg, po for 20 days; type: organism-based; settings: in vivo, 480 h, dose 3-30 mg/kg, time 20 day
[12] = Oral bioavailability in Wistar Han rat blood at 3 mg/kg measured upto 24 hrs by LC-MS/MS analysis; type: ADME, organism-based
[13] = molecular target: T2, Bromodomain-containing protein 2 (Homo sapiens, UniProt P25440); assay: Binding affinity to BRD2 BD1 (unknown origin) assessed as dissociation constant
[14] = Cmax in KLH-TNP-induced T-cell dependent immunization CD-1 mouse model at 30 mg/kg, po administered daily for 14 days; type: ADME, organism-based; set-up: time 14 day, dose 30 mg/kg, route po; settings: in vivo
[15] = molecular target: Bromodomain-containing protein 4 (Homo sapiens, UniProt O60885); assay: Inhibition of BRD4 BD1 (unknown origin) incubated for 30 mins in presence of fluorescent ligand by TR-FRET method
[16] = Terminal half life in Wistar Han rat blood at 3 mg/kg, po or 1.3 mg/kg, iv measured upto 24 hrs by LC-MS/MS analysis; type: ADME, organism-based; settings: read-out: beta t1/2 (converted)
[17] = molecular target: T2, Bromodomain-containing protein 2; assay: Binding affinity to BRD2 BD2 (unknown origin) assessed as dissociation constant
[18] = Antineoplastic activity against human NMC 11060 cells xenografted in SCID mouse assessed as reduction in tumor volume at 10 mg/kg, po for 20 days measured at 6 days of post randomization relative to control; type: functional; settings: NMC 11060 cell, 480 h, time 20 day
[19] = Unbound Cmax in SCID mouse xenografted with human NMC 11060 cells at 3 to 30 mg/kg, po for 20 days; type: ADME, organism-based; settings: in vivo, 480 h, dose 3-30 mg/kg, time 20 day
[20] = Cmax in KLH-TNP-induced T-cell dependent immunization CD-1 mouse model at 30 mg/kg, po administered every other day for 14 days; type: ADME, organism-based; set-up: dose 30 mg/kg, time 14 day, route po; settings: in vivo
[21] = molecular target: T1, Bromodomain testis-specific protein; assay: Binding affinity to BRDT BD2 (unknown origin) assessed as dissociation constant
[22] = Antineoplastic activity against human NMC 11060 cells xenografted in SCID mouse assessed as reduction in tumor volume at 10 mg/kg, po for 20 days measured at 10 days of post randomization relative to control; type: functional; settings: NMC 11060 cell, 480 h, time 20 day
Mus musculus = assay: Antiinflammatory activity in KLH-TNP-induced T-cell dependent immunization CD-1 mouse model assessed as reduction in circulating IgG1 at 30 mg/kg, po administered every other day for 14 days followed by administration of KLH-TNP after 1 hr; type: functional; settings: CD-1, T-cell, 336 h, time 14 day
[23] = Antineoplastic activity against human NMC 11060 cells xenografted in SCID mouse assessed as reduction in tumor volume at 30 mg/kg, po for 20 days measured at 3 days of post randomization relative to control; type: functional; settings: NMC 11060 cell, 480 h, time 20 day
[24] = AUC(0 to 72 hrs) in KLH-TNP-induced T-cell dependent immunization CD-1 mouse model at 30 mg/kg, po administered every third day for 14 days; type: ADME, organism-based; set-up: dose 30 mg/kg, time 14 day, route po; settings: in vivo
[25] = Unbound clearance in Wistar Han rat blood at 3 mg/kg, po or 1.3 mg/kg, iv measured upto 24 hrs by LC-MS/MS analysis; type: ADME, organism-based; settings: in vivo
[26] = Cmax in KLH-TNP-induced T-cell dependent immunization CD-1 mouse model at 30 mg/kg, po administered every third day for 14 days; type: ADME, organism-based; set-up: time 14 day, dose 30 mg/kg, route po; settings: in vivo
[27] = Antineoplastic activity against human NMC 11060 cells xenografted in SCID mouse assessed as reduction in tumor volume at 10 mg/kg, po for 20 days measured at 17 days of post randomization relative to control; type: functional; settings: NMC 11060 cell, 480 h, time 20 day
[28] = Unbound clearance in Beagle dog blood at 3 mg/kg, po or 1.0 mg/kg, iv by LC-MS/MS analysis; type: ADME, organism-based, Canis lupus familiaris; settings: in vivo
[29] = Artificial membrane permeability of the compound; type: ADME; settings: PAMPA; read-out: permeability
[30] = Antineoplastic activity against human NMC 11060 cells xenografted in SCID mouse assessed as reduction in tumor volume at 30 mg/kg, po for 20 days measured at 6 days of post randomization relative to control; type: functional; settings: NMC 11060 cell, 480 h, time 20 day

T2 sequence (P25440 whole entry): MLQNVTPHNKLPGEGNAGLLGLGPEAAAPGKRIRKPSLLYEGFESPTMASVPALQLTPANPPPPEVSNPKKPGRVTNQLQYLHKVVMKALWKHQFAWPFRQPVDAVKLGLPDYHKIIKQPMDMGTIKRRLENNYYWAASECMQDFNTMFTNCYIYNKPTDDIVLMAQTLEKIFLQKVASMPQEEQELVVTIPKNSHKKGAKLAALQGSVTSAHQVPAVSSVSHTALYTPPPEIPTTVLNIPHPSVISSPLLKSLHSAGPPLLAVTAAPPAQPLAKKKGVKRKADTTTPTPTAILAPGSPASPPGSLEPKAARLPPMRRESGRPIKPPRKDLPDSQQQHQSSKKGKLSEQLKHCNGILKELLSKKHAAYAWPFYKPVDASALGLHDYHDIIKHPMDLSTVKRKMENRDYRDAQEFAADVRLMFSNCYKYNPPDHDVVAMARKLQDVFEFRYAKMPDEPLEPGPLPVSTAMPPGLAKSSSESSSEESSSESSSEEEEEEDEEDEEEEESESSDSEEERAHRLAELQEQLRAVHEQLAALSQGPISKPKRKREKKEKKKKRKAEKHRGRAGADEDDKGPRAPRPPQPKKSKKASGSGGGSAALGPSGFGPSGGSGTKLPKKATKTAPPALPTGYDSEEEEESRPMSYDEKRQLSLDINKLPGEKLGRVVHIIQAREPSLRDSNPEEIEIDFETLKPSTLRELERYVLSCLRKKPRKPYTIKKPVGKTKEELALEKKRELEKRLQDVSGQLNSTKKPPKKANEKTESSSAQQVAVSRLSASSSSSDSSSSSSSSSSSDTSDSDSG
Sequence of Histone acetyltransferase p300 (Q09472 whole entry): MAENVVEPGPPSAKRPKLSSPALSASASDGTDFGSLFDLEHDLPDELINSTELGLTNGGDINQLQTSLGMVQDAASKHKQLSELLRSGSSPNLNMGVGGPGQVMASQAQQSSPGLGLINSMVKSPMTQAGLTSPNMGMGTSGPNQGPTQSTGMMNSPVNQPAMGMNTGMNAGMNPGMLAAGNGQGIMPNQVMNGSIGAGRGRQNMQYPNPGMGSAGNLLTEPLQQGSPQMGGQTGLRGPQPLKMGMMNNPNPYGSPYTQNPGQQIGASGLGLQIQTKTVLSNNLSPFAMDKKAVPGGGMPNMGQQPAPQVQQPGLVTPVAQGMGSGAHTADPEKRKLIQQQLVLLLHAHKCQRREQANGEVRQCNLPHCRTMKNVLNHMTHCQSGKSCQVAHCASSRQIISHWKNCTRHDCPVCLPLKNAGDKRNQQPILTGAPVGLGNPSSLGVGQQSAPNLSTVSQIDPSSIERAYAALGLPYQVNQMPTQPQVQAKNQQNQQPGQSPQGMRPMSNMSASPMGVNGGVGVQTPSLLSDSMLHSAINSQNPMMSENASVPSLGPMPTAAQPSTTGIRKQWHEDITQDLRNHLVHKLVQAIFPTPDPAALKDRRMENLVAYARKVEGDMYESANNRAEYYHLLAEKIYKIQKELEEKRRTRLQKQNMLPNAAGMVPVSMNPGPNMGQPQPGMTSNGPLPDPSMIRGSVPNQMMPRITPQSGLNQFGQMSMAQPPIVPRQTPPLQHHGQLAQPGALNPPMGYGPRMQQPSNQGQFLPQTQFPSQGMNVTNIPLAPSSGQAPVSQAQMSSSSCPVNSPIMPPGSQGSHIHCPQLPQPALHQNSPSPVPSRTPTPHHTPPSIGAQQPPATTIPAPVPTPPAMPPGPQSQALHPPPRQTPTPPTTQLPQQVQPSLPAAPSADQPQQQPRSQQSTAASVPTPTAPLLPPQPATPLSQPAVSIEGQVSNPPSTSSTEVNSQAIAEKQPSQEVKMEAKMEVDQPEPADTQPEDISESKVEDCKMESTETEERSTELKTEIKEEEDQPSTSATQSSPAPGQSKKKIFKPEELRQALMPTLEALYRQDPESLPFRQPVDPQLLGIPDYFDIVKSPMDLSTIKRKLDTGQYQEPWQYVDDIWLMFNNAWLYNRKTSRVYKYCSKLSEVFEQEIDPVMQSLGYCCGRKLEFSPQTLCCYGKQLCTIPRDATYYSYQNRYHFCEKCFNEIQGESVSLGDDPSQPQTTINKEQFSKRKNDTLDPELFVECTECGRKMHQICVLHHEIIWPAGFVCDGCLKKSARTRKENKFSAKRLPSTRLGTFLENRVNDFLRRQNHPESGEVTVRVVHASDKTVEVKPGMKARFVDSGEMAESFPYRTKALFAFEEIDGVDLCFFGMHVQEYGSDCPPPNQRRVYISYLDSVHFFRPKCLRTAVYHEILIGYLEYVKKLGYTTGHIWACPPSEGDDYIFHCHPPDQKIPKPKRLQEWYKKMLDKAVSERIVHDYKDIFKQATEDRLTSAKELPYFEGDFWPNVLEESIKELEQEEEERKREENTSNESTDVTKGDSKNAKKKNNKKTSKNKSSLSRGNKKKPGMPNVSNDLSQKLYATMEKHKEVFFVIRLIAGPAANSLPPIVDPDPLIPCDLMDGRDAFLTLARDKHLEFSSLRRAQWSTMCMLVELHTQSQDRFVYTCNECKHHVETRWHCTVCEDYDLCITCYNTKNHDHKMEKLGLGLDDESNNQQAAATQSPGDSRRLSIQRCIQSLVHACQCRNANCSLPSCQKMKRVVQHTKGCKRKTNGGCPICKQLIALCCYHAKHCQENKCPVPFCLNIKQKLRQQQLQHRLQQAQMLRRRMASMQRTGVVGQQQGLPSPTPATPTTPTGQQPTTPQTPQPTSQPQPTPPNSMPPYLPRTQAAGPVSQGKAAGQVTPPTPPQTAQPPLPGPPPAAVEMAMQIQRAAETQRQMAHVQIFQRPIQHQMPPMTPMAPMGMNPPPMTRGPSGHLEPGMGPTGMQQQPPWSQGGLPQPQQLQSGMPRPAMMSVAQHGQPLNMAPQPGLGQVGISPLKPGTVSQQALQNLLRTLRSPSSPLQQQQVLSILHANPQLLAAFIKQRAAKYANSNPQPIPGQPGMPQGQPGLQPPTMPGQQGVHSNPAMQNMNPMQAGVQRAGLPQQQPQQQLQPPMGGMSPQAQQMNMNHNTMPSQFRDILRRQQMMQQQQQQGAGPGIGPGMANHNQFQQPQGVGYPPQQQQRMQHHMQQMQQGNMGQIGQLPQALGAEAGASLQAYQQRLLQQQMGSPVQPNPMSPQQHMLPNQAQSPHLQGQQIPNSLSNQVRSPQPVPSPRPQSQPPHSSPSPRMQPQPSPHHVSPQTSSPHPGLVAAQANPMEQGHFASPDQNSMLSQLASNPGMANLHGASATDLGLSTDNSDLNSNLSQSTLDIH

Which Vduss [1] does the source give for `CC(=O)N1c2ccc(C(N)=O)cc2[C@H](Nc2ncc(Cl)cn2)C[C@@H]1C` here?
The Vduss was 10.4 L/kg.

And the pKd [2]?
The pKd was 5.60.

And the inhibition in vivo at 10 mg/kg [3]?
The inhibition in vivo at 10 mg/kg was 65%.

What about the CL renal at 24 h [4] of the same compound?
The CL renal at 24 h was 7 mL/min/kg.

And the pKd [5]?
Its pKd is 7.60.

And the half-life [6]?
The half-life was 1.8 h.

What about the inhibition in vivo at 30 mg/kg [7] of the same compound?
The inhibition in vivo at 30 mg/kg was 93%.

And the bioavailability [8]?
The bioavailability was 98%.

And the Vdss [9]?
Its Vdss is 1.2 L/kg.

What about the Activity [10] of the same compound?
The Activity was “Non-Toxic”.

What about the Activity [11] of the same compound?
The Activity was “Non-Toxic”.

What about the bioavailability [12] of the same compound?
Its bioavailability is 99%.

And the pKd [13]?
Its pKd is 7.40.

And the Cmax [14]?
Its Cmax is 8.5 µM.

And the pIC50 [15]?
The pIC50 was 6.90.

What about the half-life [16] of the same compound?
Its half-life is 1.6 h.

What about the pKd [17] of the same compound?
Its pKd is 8.10.

And the inhibition in vivo at 10 mg/kg [18]?
Its inhibition in vivo at 10 mg/kg is 54%.

And the fCmax [19]?
Its fCmax is 2 µM.

And the Cmax [20]?
The Cmax was 8.5 µM.

What about the pKd [21] of the same compound?
The pKd was 7.60.

And the inhibition in vivo at 10 mg/kg [22]?
Its inhibition in vivo at 10 mg/kg is 69%.

And the inhibition in vivo at 30 mg/kg (Mus musculus)?
Its inhibition in vivo at 30 mg/kg is 93%.

And the inhibition in vivo at 30 mg/kg [23]?
Its inhibition in vivo at 30 mg/kg is 44%.

And the AUC at 336 h [24]?
Its AUC at 336 h is 34 µM·h.

And the CL free [25]?
Its CL free is 109 mL/min/kg.

What about the Cmax [26] of the same compound?
The Cmax was 8.5 µM.

What about the inhibition in vivo at 10 mg/kg [27] of the same compound?
Its inhibition in vivo at 10 mg/kg is 59%.

And the CL free [28]?
Its CL free is 20 mL/min/kg.

What about the Papp [29] of the same compound?
Its Papp is 6.8 ×10⁻⁶ cm/s.

What about the inhibition in vivo at 30 mg/kg [30] of the same compound?
The inhibition in vivo at 30 mg/kg was 70%.
